Like-named read-outs stand apart in the source and are kept apart here.

One test deals with T1, Electric eel AChE (Electrophorus electricus, UniProt O42275).
T1 construct: native commercial enzyme from Sigma, no further details
Kind of test: Ellman assay, […] nm. In kind it is biochemical. (In general: Ellman's reagent forms a yellow product with free thiols.)

The subject of a further test is T2, Human Serum AChE.
T2 construct: crude supernatant of citrated fresh blood (plasma), not purified
As to the kind of experiment: Ellman assay, […] nm. It counts as biochemical. The note with it: acetylthiocholine iodide substrate, phosphate buffer pH 8.0, 37 °C, 10 min preincubation.

Where [1] appears, read: acetylthiocholine iodide substrate, phosphate buffer pH 8.0, 37 °C, 10 min preincubation; read-out: Electric eel AChE, IC50 nM.

T1 sequence (O42275 24-633): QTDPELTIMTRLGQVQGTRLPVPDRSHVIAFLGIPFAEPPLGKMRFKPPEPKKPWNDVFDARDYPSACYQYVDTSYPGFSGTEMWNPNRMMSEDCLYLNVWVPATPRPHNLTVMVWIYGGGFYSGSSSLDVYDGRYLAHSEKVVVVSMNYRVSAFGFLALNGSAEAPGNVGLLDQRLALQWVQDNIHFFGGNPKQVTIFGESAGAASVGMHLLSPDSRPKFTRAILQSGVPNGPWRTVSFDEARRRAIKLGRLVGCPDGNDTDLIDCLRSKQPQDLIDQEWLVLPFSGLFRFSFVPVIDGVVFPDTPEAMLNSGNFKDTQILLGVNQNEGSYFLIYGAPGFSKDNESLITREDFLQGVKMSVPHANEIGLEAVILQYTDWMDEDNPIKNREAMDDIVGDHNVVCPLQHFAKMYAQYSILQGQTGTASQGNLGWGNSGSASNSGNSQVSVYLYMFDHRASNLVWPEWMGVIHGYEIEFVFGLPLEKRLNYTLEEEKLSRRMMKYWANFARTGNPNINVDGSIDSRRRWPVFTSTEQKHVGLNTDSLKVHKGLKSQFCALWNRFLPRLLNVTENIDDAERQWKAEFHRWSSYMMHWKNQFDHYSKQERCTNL

As usually defined, the IC50 is the point on the concentration scale where inhibition reaches its midpoint. As for `CN1CCC=C(c2ccc(C(F)(F)F)cc2)C1` [5a, 3-[4-(trifluoromethyl)phenyl]-1,2,5,6-tetrahydro-1-methylpyridine], the IC50 at Electric eel AChE (setting [1]) amounted to 49.5 nM; in the test on Human Serum AChE it was 52 nM.

Regarding `CN1CCC=C(c2ccc(C#N)cc2)C1` [5b, 3-(4-cyanophenyl)-1,2,5,6-tetrahydro-1-methylpyridine], the IC50 at Electric eel AChE (setting [1]) is 64 nM; with Human Serum AChE it was 68 nM.

As to `CN1CCC=C(c2ccc(Cl)cc2)C1` [5d, 3-(4-chlorophenyl)-1,2,5,6-tetrahydro-1-methylpyridine], the 50% inhibitory concentration (IC50) at Electric eel AChE (setting [1]) was 806 nM; in the test on Human Serum AChE, 784 nM.

`COc1ccc(C2=CCCN(C)C2)cc1` [5e, 3-(4-methoxyphenyl)-1,2,5,6-tetrahydro-1-methylpyridine]: in the test with Human Serum AChE, the IC50 is 2880 nM.

With `CN1CCC=C(c2c(Cl)cccc2Cl)C1` [5f, 3-(2,6-dichlorophenyl)-1,2,5,6-tetrahydro-1-methylpyridine], the values for the IC50 on Electric eel AChE (setting [1]) and in the test with Human Serum AChE were 678 nM and 729 nM, respectively.

On to `CN1CCC=C(c2ccc(Oc3ccccc3)cc2)C1` [5g, 3-(4-phenoxyphenyl)-1,2,5,6-tetrahydro-1-methylpyridine], for which the half-inhibitory concentration (IC50) came to 1230 nM on Electric eel AChE (setting [1]) and 1350 nM in the test on Human Serum AChE.

For the molecule `CN1CCC=C(c2ccc(-c3ccccc3)c(F)c2)C1` [5h, 3-(2-fluoro-biphenyl-4-yl)-1-methyl-1,2,5,6-tetrahydropyridine], the values for the half-maximal inhibitory concentration (IC50) at Electric eel AChE (setting [1]) and with Human Serum AChE were 118 nM and 116 nM, respectively.

`CCOc1cccc(C2=CCCN(C)C2)c1` [5j, 3-(3-ethoxyphenyl)-1,2,5,6-tetrahydro-1-methylpyridine]: the concentration for half-maximal inhibition (IC50) at Electric eel AChE (setting [1]) was 1230 nM; in the test with Human Serum AChE, 1220 nM.

`CN1CCC=C(c2cccc(Cl)c2F)C1` [5k, 3-(3-chloro-2-fluoro-phenyl)-1-methyl-1,2,5,6-tetrahydropyridine]: the IC50 at Electric eel AChE (setting [1]) came out at 182 nM; in the test with Human Serum AChE, 170 nM.

On to `CN(C)C(=O)Oc1cccc([N+](C)(C)C)c1` [Neostigmine, reference compound], for which the half-inhibitory concentration (IC50) is 36.5 nM at Electric eel AChE (read-out: Electric eel AChE, IC50 nM; acetylthiocholine iodide substrate, phosphate buffer pH 8.0, 37 °C, 10 min preincubation) and 39.2 nM in the test on Human Serum AChE.
